Source: US9770026B2, “Substituted pyrimidine compound and uses thereof” (Shenyang Sinochem Agrochemicals R&D Co., Ltd., priority 2012, dated 2017)

Key:
wheat powdery mildew = experiment: protectant activity in vivo against wheat powdery mildew; details: protectant activity; for control effect against wheat powdery mildew (%): 400 mg/L; for pest or weed control at 6.25 µg/mL / pest or weed control at 25 µg/mL / pest or weed control at 100 µg/mL / pest or weed control at 400 µg/mL: Triticum aestivum, 168 h; for pest or weed control at 6.25 µg/mL: read-out: control effect against wheat powdery mildew (%), 6.25 mg/L; for pest or weed control at 25 µg/mL: read-out: control effect against wheat powdery mildew (%), 25 mg/L; for pest or weed control at 100 µg/mL: read-out: control effect against wheat powdery mildew (%), 100 mg/L; for pest or weed control at 400 µg/mL: read-out: control effect against wheat powdery mildew (%), 400 mg/L
Diamond back moth = experiment: insecticidal activity against diamond back moth, airbrush spray; assay type: in vivo; details: for Insecticidal activity against diamond back moth (%) / pest or weed control at 600 µg/mL: 600 mg/L
How it was run: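 Airbrush leaf-disc spray test: both faces of 2 cm cabbage discs received 0.5 ml of test solution at 0.7 kg/cm^2. Solutions were made in acetone:methanol (1:1) and brought to concentration with 0.1% Tween 80 in water. Ten second-instar larvae per disc, triplicates, were held at 25° C and 60˜70% R.H., with mortality recorded at 72 hrs.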

corn rust = experiment: protectant activity in vivo against corn rust; details: protectant activity; for control effect against corn rust (%): 400 mg/L; for pest or weed control at 6.25 µg/mL / pest or weed control at 25 µg/mL / pest or weed control at 100 µg/mL / pest or weed control at 400 µg/mL: Zea mays, 168 h; for pest or weed control at 6.25 µg/mL: read-out: control effect against corn rust (%), 6.25 mg/L; for pest or weed control at 25 µg/mL: read-out: control effect against corn rust (%), 25 mg/L; for pest or weed control at 100 µg/mL: read-out: control effect against corn rust (%), 100 mg/L; for pest or weed control at 400 µg/mL: read-out: control effect against corn rust (%), 400 mg/L
[1] = tested on: Green peach aphids (Myzus Persicae Sulzer); experiment: bioactivity test against green peach aphid, airbrush foliar spray; assay type: in vivo; details: 600 mg/L, contrastive test; for pest or weed control at 600 µg/mL: Myzus persicae, foliar, 48 h, read-out: Insecticidal activity against peach aphid (%)
How it was run: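 Death rate was scored at 48 hrs, held at 25±1 C and 60±5% RH, following airbrush foliar spray (0.5 mL, 10 psi) onto cabbage leaf discs bearing about 15-30 aphids. Test solutions: compound dissolved in 1:1 acetone:methanol, brought to concentration with 0.1% tween 80 water.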

carmine spider mite = experiment: bioactivity test against carmine spider mite, airbrush spray; assay type: in vivo; details: contrastive test; for Insecticidal activity against carmine spider mite (% ) / pest or weed control at 600 µg/mL: 600 mg/L
How it was run: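 Broadbean seedlings infested with adult mites were sprayed with compound (acetone/methanol stock diluted in 0.1% Tween 80 water) by airbrush at 0.7 kg/cm^2, 0.5 ml. Three replicates were run. Mortality was scored after 72 hrs.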

cucumber downy mildew = experiment: protectant activity in vivo against cucumber downy mildew; details: protectant activity; for pest or weed control at 25 µg/mL / pest or weed control at 50 µg/mL / pest or weed control at 100 µg/mL / pest or weed control at 400 µg/mL: Cucumis sativus, 168 h; for pest or weed control at 25 µg/mL: read-out: control effect against cucumber downy mildew (%), 25 mg/L; for pest or weed control at 50 µg/mL: read-out: control effect against cucumber downy mildew (%), 50 mg/L; for pest or weed control at 100 µg/mL: read-out: control effect against cucumber downy mildew (%), 100 mg/L; for pest or weed control at 400 µg/mL: read-out: control effect against cucumber downy mildew (%), 400 mg/L
armyworm = experiment: bioactivity test against armyworm, airbrush spray; assay type: in vivo; details: 600 mg/L; for pest or weed control at 600 µg/mL: 72 h, read-out: Insecticidal activity against armyworm (%)
[2] = Tetranychus cinnabarinus, 72 h, read-out: Insecticidal activity against carmine spider mite (% )

CCc1ncnc(NC(C)c2ccc(Oc3ccccc3)nc2)c1Cl (centres unmarked) [CK8, reference compound]
control effect against wheat powdery mildew (%) (wheat powdery mildew): 0%
Insecticidal activity against diamond back moth (%) (Diamond back moth): 33%
control effect against corn rust (%) (corn rust): 50%
Insecticidal activity against peach aphid (%) [1]: 0%
Insecticidal activity against carmine spider mite (% ) (carmine spider mite): 54%
control effect against cucumber downy mildew (%) (cucumber downy mildew; 25 mg/L): 75%
control effect against cucumber downy mildew (%) (cucumber downy mildew; 50 mg/L): 80%
control effect against cucumber downy mildew (%) (cucumber downy mildew; 100 mg/L): 95%
control effect against cucumber downy mildew (%) (cucumber downy mildew; 400 mg/L): 98%
Insecticidal activity against armyworm (%) (armyworm): 17%

CCc1ncnc(NC(=O)Cc2ccc(Oc3ncc(C(F)(F)F)cc3Cl)cc2)c1Cl [CK16, reference compound]
control effect against wheat powdery mildew (%) (wheat powdery mildew): 70%
Insecticidal activity against diamond back moth (%) (Diamond back moth): 0%
control effect against corn rust (%) (corn rust): 0%
Insecticidal activity against peach aphid (%) [1]: 64%
Insecticidal activity against carmine spider mite (% ) (carmine spider mite): 0%
control effect against cucumber downy mildew (%) (cucumber downy mildew; 400 mg/L): 85%
Insecticidal activity against armyworm (%) (armyworm): 0%

Cc1ncnc(NCc2ccc(Oc3ncc(C(F)(F)F)cc3Cl)cc2)c1Cl [CK23, reference compound]
control effect against wheat powdery mildew (%) (wheat powdery mildew): 100%
pest or weed control at 6.25 µg/mL (wheat powdery mildew): 0%
pest or weed control at 25 µg/mL (wheat powdery mildew): 0%
pest or weed control at 100 µg/mL (wheat powdery mildew): 0%
pest or weed control at 600 µg/mL (Diamond back moth; 72 h): 0%
pest or weed control at 6.25 µg/mL (corn rust): 0%
pest or weed control at 25 µg/mL (corn rust): 0%
pest or weed control at 100 µg/mL (corn rust): 0%
pest or weed control at 400 µg/mL (corn rust): 100%
pest or weed control at 600 µg/mL [1]: 0%
Insecticidal activity against carmine spider mite (% ) (carmine spider mite): 64%
control effect against cucumber downy mildew (%) (cucumber downy mildew; 400 mg/L): 100%
pest or weed control at 25 µg/mL (cucumber downy mildew): 0%
pest or weed control at 50 µg/mL (cucumber downy mildew): 0%
pest or weed control at 100 µg/mL (cucumber downy mildew): 0%
pest or weed control at 600 µg/mL (armyworm): 0%

Cc1ncnc(NC(C)c2ccc(Oc3ncc(C(F)(F)F)cc3Cl)cc2)c1Cl (centres unmarked) [CK27, reference compound]
pest or weed control at 400 µg/mL (wheat powdery mildew): 80%
pest or weed control at 600 µg/mL (Diamond back moth; 72 h): 0%
pest or weed control at 6.25 µg/mL (corn rust): 30%
pest or weed control at 25 µg/mL (corn rust): 90%
pest or weed control at 100 µg/mL (corn rust): 100%
pest or weed control at 400 µg/mL (corn rust): 100%
pest or weed control at 600 µg/mL [1]: 0%
pest or weed control at 10 µg/mL (carmine spider mite; Tetranychus cinnabarinus, 72 h, 10 mg/L, read-out: Insecticidal activity against carmine spider mite (% )): 18%
pest or weed control at 100 µg/mL (carmine spider mite; Tetranychus cinnabarinus, 72 h, 100 mg/L, read-out: Insecticidal activity against carmine spider mite (% )): 100%
pest or weed control at 600 µg/mL (carmine spider mite; [2]): 100%
pest or weed control at 25 µg/mL (cucumber downy mildew): 0%
pest or weed control at 50 µg/mL (cucumber downy mildew): 0%
pest or weed control at 100 µg/mL (cucumber downy mildew): 0%
pest or weed control at 400 µg/mL (cucumber downy mildew): 100%
pest or weed control at 600 µg/mL (armyworm): 29%

Cc1ncnc(NCc2ccc(Oc3c(Cl)cc([N+](=O)[O-])cc3Cl)cc2)c1Cl [CK65, reference compound]
pest or weed control at 400 µg/mL (wheat powdery mildew): 0%
pest or weed control at 10 µg/mL (Diamond back moth; 72 h, 10 mg/L): 5%
pest or weed control at 100 µg/mL (Diamond back moth; 72 h, 100 mg/L): 35%
pest or weed control at 600 µg/mL (Diamond back moth; 72 h): 86%
pest or weed control at 400 µg/mL (corn rust): 0%
pest or weed control at 600 µg/mL [1]: 0%
pest or weed control at 600 µg/mL (carmine spider mite; [2]): 0%
pest or weed control at 400 µg/mL (cucumber downy mildew): 0%
pest or weed control at 600 µg/mL (armyworm): 0%

CCc1ncnc(NCc2ccc(Oc3c(Cl)cc([N+](=O)[O-])cc3Cl)cc2)c1Cl [CK66, reference compound]
pest or weed control at 400 µg/mL (wheat powdery mildew): 0%
pest or weed control at 600 µg/mL (Diamond back moth; 72 h): 0%
pest or weed control at 400 µg/mL (corn rust): 0%
pest or weed control at 600 µg/mL [1]: 0%
pest or weed control at 600 µg/mL (carmine spider mite; [2]): 0%
pest or weed control at 400 µg/mL (cucumber downy mildew): 0%
pest or weed control at 600 µg/mL (armyworm): 0%

FC(F)(F)c1cnc(Oc2ccc(CCNc3ncnc(Cl)c3Cl)cc2)c(Cl)c1 [CK72, reference compound]
pest or weed control at 6.25 µg/mL (wheat powdery mildew): 50%
pest or weed control at 25 µg/mL (wheat powdery mildew): 60%
pest or weed control at 100 µg/mL (wheat powdery mildew): 70%
pest or weed control at 400 µg/mL (wheat powdery mildew): 100%
pest or weed control at 600 µg/mL (Diamond back moth; 72 h): 0%
pest or weed control at 6.25 µg/mL (corn rust): 0%
pest or weed control at 25 µg/mL (corn rust): 20%
pest or weed control at 100 µg/mL (corn rust): 80%
pest or weed control at 400 µg/mL (corn rust): 100%
pest or weed control at 600 µg/mL [1]: 55%
pest or weed control at 600 µg/mL (carmine spider mite; [2]): 13%
pest or weed control at 25 µg/mL (cucumber downy mildew): 20%
pest or weed control at 50 µg/mL (cucumber downy mildew): 40%
pest or weed control at 100 µg/mL (cucumber downy mildew): 100%
pest or weed control at 400 µg/mL (cucumber downy mildew): 100%
pest or weed control at 600 µg/mL (armyworm): 71%
